Laboratory results: patent US11155557B2, “Pyrazolopyrimidine compounds and methods of use thereof” (Genentech, Inc., priority 2016, dated 2021)
Where two headings read alike, the source gives them in different places.

Columns and labels:
[1] = target: isolated recombinant JAK1 kinase domain (Homo sapiens (Human), UniProt P23458); experiment: JAK1 enzyme assay (Caliper LabChip, Ki); type: biochemical
Method: The activity of the isolated recombinant JAK1 and JAK2 kinase domain was measured by monitoring phosphorylation of a peptide derived from JAK3 ([…] fluorescently labeled on the N-terminus with 5-carboxyfluorescein) using the Caliper LabChip R technology (Caliper Life Sciences, Hopkinton, Mass.).

[2] = target: isolated recombinant JAK2 kinase domain (Homo sapiens (Human), UniProt O60674); experiment: JAK2 enzyme assay (Caliper LabChip, Ki); details: read-out: JAK2 Ki
[3] = system: JAK1-dependent STAT6 phosphorylation in BEAS-2B human bronchial epithelial cells; experiment: JAK1 pathway assay: IL-13 stimulated STAT6 phosphorylation in BEAS-2B cells; type: cell-based; details: BEAS-2B cells, IL-13 stimulation, read-out: IL-13 p-STAT6 BEAS-2B IC50
Method: JAK1 Pathway Assay in Cell Lines was Carried Out as Follows:
Inhibitor potency (EC50) was determined in cell-based assays designed to measure JAK1 dependent STAT phosphorylation.
In one assay approach, TF-1 human erythroleukemia cells obtained from the American Type Culture Collection (ATCC; Manassas, Va.) were used to measure JAK1-dependent STAT6 phosphorylation downstream of IL-13 stimulation. Prior to use in the assays, TF-1 cells were starved of GM-CSF overnight in OptiMEM medium (Life Technologies, Grand Island, N.Y.) supplemented with 0.5% charcoal/dextran stripped fetal bovine serum (FBS), 0.1 mM non-essential amino acids (NEAA), and 1 mM sodium pyruvate. The assays were run in 384-well plates in serum-free OptiMEM medium using 300,000 cells per well. In a second assay approach, BEAS-2B human bronchial epithelial cells obtained from ATCC were plated at 100,000 cells per well of a 96-well plate one day prior to the experiment. The BEAS-2B assay was run in complete growth medium (bronchial epithelial basal medium plus bulletkit; Lonza; Basel, Switzerland).
Test compounds were serially diluted 1:2 in DMSO and then diluted 1:50 in medium just before use. Diluted compounds were added to the cells, for a final DMSO concentration of 0.2%, and incubated for 30 min (for the TF-1 assay) or 1 hr (for the BEAS-2B assay) at 37° C. Then, cells were stimulated with human recombinant cytokine at their respective EC90 concentrations, as previously determined for each individual lot. Cells were stimulated with IL-13 (R&D Systems, Minneapolis, Minn.) for 15 min at 37° C. […] The resultant samples were frozen in the plates at −80° C. Compound mediated inhibition of STAT6 phosphorylation was measured in the cell lysates using MesoScale Discovery (MSD) technology (Gaithersburg, Md.).

Sequence of isolated recombinant JAK1 kinase domain (P23458 875-1153): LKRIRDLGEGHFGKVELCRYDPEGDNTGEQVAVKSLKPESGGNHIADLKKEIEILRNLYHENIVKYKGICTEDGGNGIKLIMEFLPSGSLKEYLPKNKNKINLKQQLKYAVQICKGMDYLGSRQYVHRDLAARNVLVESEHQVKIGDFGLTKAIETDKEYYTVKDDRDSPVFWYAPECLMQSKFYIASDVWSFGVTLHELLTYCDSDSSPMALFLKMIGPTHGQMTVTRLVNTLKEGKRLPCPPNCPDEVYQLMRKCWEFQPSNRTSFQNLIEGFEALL
Sequence of isolated recombinant JAK2 kinase domain (O60674 849-1124): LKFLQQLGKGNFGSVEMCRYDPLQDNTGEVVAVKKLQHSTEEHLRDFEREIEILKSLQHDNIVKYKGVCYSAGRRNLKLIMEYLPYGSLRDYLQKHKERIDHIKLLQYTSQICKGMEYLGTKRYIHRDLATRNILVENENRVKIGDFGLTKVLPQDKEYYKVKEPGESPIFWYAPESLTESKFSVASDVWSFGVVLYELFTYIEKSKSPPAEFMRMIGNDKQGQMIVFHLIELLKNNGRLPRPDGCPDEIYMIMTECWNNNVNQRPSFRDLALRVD

Structure (SMILES): O=C(Nc1cn(C2CCCNC2)nc1-c1cc2ccccc2cc1OC(F)F)c1cnn2cccnc12 (racemic) [Example 5, N-(3-(3-(difluoromethoxy)naphthalen-2-yl)-1-(piperidin-3-yl)-1H-pyrazol-4-yl)pyrazolo[1,5-a]pyrimidine-3-carboxamide]
- Ki [1]: 1.21 nM
- Ki [2]: 0.78 nM
- IC50 ([3]; Homo sapiens, BEAS-2B): 31 nM

Structure (SMILES): O=C(Nc1c[nH]nc1-c1cc2c(cc1OC(F)F)CC(CO)O2)c1cnn2cccnc12 (racemic) [Example 15, N-(3-(5-(difluoromethoxy)-2-(hydroxymethyl)-2,3-dihydrobenzofuran-6-yl)-1H-pyrazol-4-yl)pyrazolo[1,5-a]pyrimidine-3-carboxamide]
- Ki [1]: 0.69 nM
- Ki [2]: 0.24 nM
- IC50 ([3]; Homo sapiens, BEAS-2B): 143 nM

Structure (SMILES): NCC1CNc2cc(OC(F)F)c(-c3n[nH]cc3NC(=O)c3cnn4cccnc34)cc2S1 (racemic) [Example 38, N-[3-[2-(aminomethyl)-6-(difluoromethoxy)-3,4-dihydro-2H-1,4-benzothiazin-7-yl]-1H-pyrazol-4-yl]pyrazolo[1,5-a]pyrimidine-3-carboxamide]
- Ki [1]: 0.33 nM
- Ki [2]: 0.29 nM
- IC50 ([3]; Homo sapiens, BEAS-2B): > 1000 nM

Structure (SMILES): CC1CSc2cc(-c3n[nH]cc3NC(=O)c3cnn4cccnc34)c(OC(F)F)cc2N1 (racemic) [Example 41, N-[3-[6-(difluoromethoxy)-3-methyl-3,4-dihydro-2H-1,4-benzothiazin-7-yl]-1H-pyrazol-4-yl]pyrazolo[1,5-a]pyrimidine-3-carboxamide]
- Ki [1]: 0.08 nM
- Ki [2]: 0.06 nM
- IC50 ([3]; Homo sapiens, BEAS-2B): 4 nM

Structure (SMILES): CN1CCCC(n2cc(NC(=O)c3cnn4cccnc34)c(-c3cc4cn[nH]c4cc3OC(F)F)n2)C1 (racemic) [Example 74, N-[3-[6-(difluoromethoxy)-1H-indazol-5-yl]-1-(1-methyl-3-piperidyl)pyrazol-4-yl]pyrazolo[1,5-a]pyrimidine-3-carboxamide]
- Ki [1]: 1.63 nM
- Ki [2]: 0.98 nM
- IC50 ([3]; Homo sapiens, BEAS-2B): 18 nM

Structure (SMILES): CN1CCCC1Cn1cc(NC(=O)c2cnn3cccnc23)c(-c2cc3cn[nH]c3cc2OC(F)F)n1 (racemic) [Example 75, N-[3-[6-(difluoromethoxy)-1H-indazol-5-yl]-1-[(1-methylpyrrolidin-2-yl)methyl]pyrazol-4-yl]pyrazolo[1,5-a]pyrimidine-3-carboxamide]
- Ki [1]: 0.31 nM
- Ki [2]: 0.26 nM
- IC50 ([3]; Homo sapiens, BEAS-2B): 11 nM

Structure (SMILES): CC1CNc2cc(OC(F)F)c(-c3nn(CCN)cc3NC(=O)c3cnn4cccnc34)cc2S1 (racemic) [Example 80, N-[1-(2-aminoethyl)-3-[6-(difluoromethoxy)-2-methyl-3,4-dihydro-2H-1,4-benzothiazin-7-yl]pyrazol-4-yl]pyrazolo[1,5-a]pyrimidine-3-carboxamide]
- Ki [1]: 0.16 nM
- Ki [2]: 0.17 nM
- IC50 ([3]; Homo sapiens, BEAS-2B): 13 nM

Structure (SMILES): CC1CNc2cc(OC(F)F)c(-c3n[nH]cc3NC(=O)c3cnn4cccnc34)cc2S1 (single isomer, unassigned) [Example 93, N-[3-[6-(difluoromethoxy)-2-methyl-3,4-dihydro-2H-1,4-benzothiazin-7-yl]-1H-pyrazol-4-yl]pyrazolo[1,5-a]pyrimidine-3-carboxamide]
- Ki [1]: 0.07 nM
- Ki [2]: 0.03 nM
- IC50 ([3]; Homo sapiens, BEAS-2B): 6 nM

Structure (SMILES): CC1Sc2cc(-c3n[nH]cc3NC(=O)c3cnn4cccnc34)c(OC(F)F)cc2NC1=O (single isomer, unassigned) [Example 95, N-[3-[6-(difluoromethoxy)-2-methyl-3-oxo-4H-1,4-benzothiazin-7-yl]-1H-pyrazol-4-yl]pyrazolo[1,5-a]pyrimidine-3-carboxamide]
- Ki [1]: 0.06 nM
- Ki [2]: 0.03 nM
- IC50 ([3]; Homo sapiens, BEAS-2B): 60 nM

Structure (SMILES): CC1Sc2cc(-c3n[nH]cc3NC(=O)c3cnn4cccnc34)c(OC(F)F)cc2NC1=O (single isomer, unassigned) [Example 96, N-[3-[6-(difluoromethoxy)-2-methyl-3-oxo-4H-1,4-benzothiazin-7-yl]-1H-pyrazol-4-yl]pyrazolo[1,5-a]pyrimidine-3-carboxamide]
- Ki [1]: 0.07 nM
- Ki [2]: 0.05 nM
- IC50 [3]: 70 nM

Structure (SMILES): CC1Sc2cc(-c3nn(C)cc3NC(=O)c3cnn4cccnc34)c(OC(F)F)cc2NC1=O (single isomer, unassigned) [Example 97, N-[3-[6-(difluoromethoxy)-2-methyl-3-oxo-4H-1,4-benzothiazin-7-yl]-1-methyl-pyrazol-4-yl]pyrazolo[1,5-a]pyrimidine-3-carboxamide]
- Ki [1]: 0.13 nM
- Ki [2]: 0.09 nM
- IC50 ([3]; Homo sapiens, BEAS-2B): 7 nM

Structure (SMILES): CC1Sc2cc(-c3nn(C)cc3NC(=O)c3cnn4cccnc34)c(OC(F)F)cc2NC1=O (single isomer, unassigned) [Example 98, N-[3-[6-(difluoromethoxy)-2-methyl-3-oxo-4H-1,4-benzothiazin-7-yl]-1-methyl-pyrazol-4-yl]pyrazolo[1,5-a]pyrimidine-3-carboxamide]
- Ki [1]: 0.11 nM
- Ki [2]: 0.07 nM
- IC50 [3]: 6 nM

Structure (SMILES): CC1CNc2cc(OC(F)F)c(-c3nn(CC(=O)N4CCCCC4)cc3NC(=O)c3cnn4cccnc34)cc2S1 (single isomer, unassigned) [Example 101, N-[3-[6-(difluoromethoxy)-2-methyl-3,4-dihydro-2H-1,4-benzothiazin-7-yl]-1-[2-oxo-2-(1-piperidyl)ethyl]pyrazol-4-yl]pyrazolo[1,5-a]pyrimidine-3-carboxamide]
- Ki [1]: 0.23 nM
- Ki [2]: 0.16 nM
- IC50 ([3]; Homo sapiens, BEAS-2B): 13 nM

Structure (SMILES): CC1CNc2cc(OC(F)F)c(-c3nn(CC(=O)N4CCCCC4)cc3NC(=O)c3cnn4cccnc34)cc2S1 (single isomer, unassigned) [Example 102, N-[3-[6-(difluoromethoxy)-2-methyl-3,4-dihydro-2H-1,4-benzothiazin-7-yl]-1-[2-oxo-2-(1-piperidyl)ethyl]pyrazol-4-yl]pyrazolo[1,5-a]pyrimidine-3-carboxamide]
- Ki [1]: 0.2 nM
- Ki [2]: 0.19 nM
- IC50 [3]: 12 nM

Structure (SMILES): CC1CNc2cc(OC(F)F)c(-c3nn(CC(=O)N4CC=CCC4)cc3NC(=O)c3cnn4cccnc34)cc2S1 (single isomer, unassigned) [Example 103, N-[3-[6-(difluoromethoxy)-2-methyl-3,4-dihydro-2H-1,4-benzothiazin-7-yl]-1-[2-(3,6-dihydro-2H-pyridin-1-yl)-2-oxo-ethyl]pyrazol-4-yl]pyrazolo[1,5-a]pyrimidine-3-carboxamide]
- Ki [1]: 0.2 nM
- Ki [2]: 0.14 nM
- IC50 ([3]; Homo sapiens, BEAS-2B): 12 nM

Structure (SMILES): CC1CNc2cc(OC(F)F)c(-c3nn(CC(=O)N4CC=CCC4)cc3NC(=O)c3cnn4cccnc34)cc2S1 (single isomer, unassigned) [Example 104, N-[3-[6-(difluoromethoxy)-2-methyl-3,4-dihydro-2H-1,4-benzothiazin-7-yl]-1-[2-(3,6-dihydro-2H-pyridin-1-yl)-2-oxo-ethyl]pyrazol-4-yl]pyrazolo[1,5-a]pyrimidine-3-carboxamide]
- Ki [1]: 0.15 nM
- Ki [2]: 0.16 nM
- IC50 [3]: 11 nM

Structure (SMILES): CC1CNc2cc(OC(F)F)c(-c3nn(CC(=O)N(C)C)cc3NC(=O)c3cnn4cccnc34)cc2S1 (single isomer, unassigned) [Example 105, N-[3-[6-(difluoromethoxy)-2-methyl-3,4-dihydro-2H-1,4-benzothiazin-7-yl]-1-[2-(dimethylamino)-2-oxo-ethyl]pyrazol-4-yl]pyrazolo[1,5-a]pyrimidine-3-carboxamide]
- Ki [1]: 0.19 nM
- Ki [2]: 0.13 nM
- IC50 ([3]; Homo sapiens, BEAS-2B): 24 nM

Structure (SMILES): O=C(O)Cn1cc(NC(=O)c2cnn3cccnc23)c(-c2cc3ccccc3cc2OC(F)F)n1 [Example 2, 2-(3-(3-(difluoromethoxy)naphthalen-2-yl)-4-(pyrazolo[1,5-a]pyrimidine-3-carboxamido)-1H-pyrazol-1-yl)acetic acid]
- Ki [1]: 0.64 nM
- IC50 ([3]; Homo sapiens, BEAS-2B): 128 nM

Structure (SMILES): CC(C)(C)OC(=O)N1CCC(C(=O)Cn2ncc3cc(-c4n[nH]cc4NC(=O)c4cnn5cccnc45)c(OC(F)F)cc32)CC1 [Example 18, tert-butyl 4-(2-(6-(difluoromethoxy)-5-(4-(pyrazolo[1,5-a]pyrimidine-3-carboxamido)-1H-pyrazol-3-yl)-1H-indazol-1-yl)acetyl)piperidine-1-carboxylate]
- Ki [1]: 8.02 nM
- Ki [2]: 2.59 nM

Structure (SMILES): COc1cc2sc(C(N)=O)cc2cc1-c1n[nH]cc1NC(=O)c1cnn2cccnc12 [Example 23, N-(3-(2-carbamoyl-6-methoxybenzo[b]thiophen-5-yl)-1H-pyrazol-4-yl)pyrazolo[1,5-a]pyrimidine-3-carboxamide]
- Ki [1]: 9.27 nM
- Ki [2]: 6.01 nM
